Test results reported in publication PMC7265429, “Characterization of a new small-molecule inhibitor of HDAC6 in glioblastoma” (Cell Death & Disease, 2020).

System: acetyl-α-tubulin (HDAC6 main target) in U251-MG cells
Experiment: Western blot of acetyl-α-tubulin and cleaved PARP in U251-MG
Assay type: cell-based, human
Details: 10 nM, 48 h
Protocol: Immunoblots were performed following standard procedures. […] Detection was performed by chemiluminiscence using NOVEX ECL Chemi Substrate (ThermoFisher).

For `O=C(CCCCCCC(=O)Nc1ccccc1)NO` [SAHA, Suberoylanilide hydroxamic acid], the α-tubulin hyperacetylation was “did not”.
